One test relates to E. coli ATCC 25922. The test can be described thus: Antibacterial activity, minimum inhibitory concentration (MIC) in vitro, broth dilution. In kind it is cell-based. The note with it: Escherichia coli, ATCC25922, 5×10^5 cfu/mL, 35 °C, 18-24 hours. The essentials: (§1)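 Broth microdilution per CLSI in CAMHB, inoculum 5×10^5 cfu/mL. Compound added from 100× DMSO working stocks across 11 two-fold dilutions, final 64 to 0.06 μg/mL. Incubated 18-24 h at 35 °C.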
In general terms: Broth dilution looks for growth in wells or tubes with falling amounts of substance.

Another test deals with K. pneumoniae ATCC13883. Described as above. In kind it is cell-based. The following applies: Klebsiella pneumoniae, 5×10^5 cfu/mL, 35 °C, 18-24 hours. The essentials: as §1
Test [1] deals with T1, recombinant Pseudomonas aeruginosa LpxC (Pseudomonas aeruginosa, UniProt P47205).
T1 construct: purchased Signalway Antibody AP74647-2
T1 sequence (P47205 1-303): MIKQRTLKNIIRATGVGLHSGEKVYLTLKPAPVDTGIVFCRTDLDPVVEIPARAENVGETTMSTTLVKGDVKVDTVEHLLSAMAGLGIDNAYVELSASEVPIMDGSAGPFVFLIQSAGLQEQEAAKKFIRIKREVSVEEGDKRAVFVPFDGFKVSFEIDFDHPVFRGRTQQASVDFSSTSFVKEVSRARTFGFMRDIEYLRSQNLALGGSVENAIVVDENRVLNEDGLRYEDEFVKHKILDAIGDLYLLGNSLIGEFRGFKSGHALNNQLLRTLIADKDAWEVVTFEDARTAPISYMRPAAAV
The test can be described thus: Inhibition of enzymatic activity of recombinant Pseudomonas aeruginosa LpxC in vitro. The format is biochemical. The following applies: 5 nM LpxC; substrate UDP-3-O—(R-3-hydroxydecanoyl)-GlcNAc; 25 °C, 120 minutes; fluorescamine readout. The essentials:
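LpxC (5 nM final) was incubated with compound (8-point 4-fold series, 0.61–10000 nM) and […] UDP-3-O-(R-3-hydroxydecanoyl)-GlcNAc for 120 min at 25 °C. Product was detected with fluorescamine (Ex 390/Em 495 nm) after a pH 8.0 phosphate stop. IC50 was fitted by nonlinear regression against 0.1% DMSO control.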

In a further test the test system is K. pneumoniae ATCC51504. The test can be described thus: Antibacterial activity, minimum inhibitory concentration (MIC) in vitro, broth dilution. The format is cell-based. The following applies: Klebsiella pneumoniae, 5×10^5 cfu/mL, 35 °C, 18-24 hours. The procedure, abridged: as §1

Converted amounts (≈) assume the structure as drawn.

On to `C[C@H](O)c1nccn1Cc1cc(-c2ccc(C#CC3CC4(CCN(C=O)CC4)C3)cc2)on1` [Example 17, (S)-2-((4-(3-((2-(1-hydroxyethyl)-1H-imidazol-1-yl)methyl)isoxazol-5-yl)phenyl)ethynyl)-7-azaspiro[3.5]nonane-7-carbaldehyde], for which the figures for the MIC against E. coli ATCC 25922 and in the test with K. pneumoniae ATCC13883 were 1 µg/mL (≈ 2.25 µM) and 2 µg/mL (≈ 4.5 µM), respectively. The IC50 in test [1] turned out to be 8.32 nM.
In the case of `C[C@H](O)c1nccn1Cc1cc(-c2ccc(C#CC3CC4(CCN(C(N)=O)CC4)C3)cc2)on1` [Example 19, (S)-2-((4-(3-((2-(1-hydroxyethyl)-1H-imidazol-1-yl)methyl)isoxazol-5-yl)phenyl)ethynyl)-7-azaspiro[3.5]nonane-7-carboxamide], the values for the MIC with E. coli ATCC 25922 and against K. pneumoniae ATCC13883 were 2 µg/mL (≈ 4.35 µM) and 4 µg/mL (≈ 8.7 µM), respectively. Also, the IC50 in test [1] was determined as 6.05 nM.
The like results for `C[C@H](O)c1nccn1Cc1cc(-c2ccc(C#CC3CC4(C3)CN(CC(N)=O)C4)cc2)on1` [Example 20, (S)-2-(6-((4-(3-((2-(1-hydroxyethyl)-1H-imidazol-1-yl)methyl)isoxazol-5-yl)phenyl)ethynyl)-2-azaspiro[3.3]heptan-2-yl)acetamide] were, in that order, 2 µg/mL (≈ 4.49 µM), 4 µg/mL (≈ 8.98 µM) and 6.77 nM.
The like results for `C[C@H](O)c1nccn1Cc1cc(-c2ccc(C#CC3CC4(C3)CN(C(N)=O)C4)cc2)on1` [Example 21, (S)-6-((4-(3-((2-(1-hydroxyethyl)-1H-imidazol-1-yl)methyl)isoxazol-5-yl)phenyl)ethynyl)-2-azaspiro[3.3]heptane-2-carboxamide] were, in that order, 2 µg/mL (≈ 4.64 µM), 4 µg/mL (≈ 9.27 µM) and 5.11 nM.
The like results for `C[C@H](O)c1nccn1Cc1cc(-c2ccc(C#CC3CC4(C3)CN(C=O)C4)cc2)on1` [Example 22, (S)-6-((4-(3-((2-(1-hydroxyethyl)-1H-imidazol-1-yl)methyl)isoxazol-5-yl)phenyl)ethynyl)-2-azaspiro[3.3]heptane-2-carbaldehyde] were, in that order, 1 µg/mL (≈ 2.4 µM), 4 µg/mL (≈ 9.6 µM) and 6.54 nM.
With `C[C@H](O)c1nccn1Cc1cc(-c2ccc(C#CC3CC4(CCN(C=O)C4)C3)cc2)on1` (stereo partly drawn) [Example 23, (S)-2-((4-(3-((2-(1-hydroxyethyl)-1H-imidazol-1-yl)methyl)isoxazol-5-yl)phenyl)ethynyl)-6-azaspiro[3.4]octane-6-carbaldehyde], the MIC in the test on E. coli ATCC 25922 is 2 µg/mL (≈ 4.65 µM); against K. pneumoniae ATCC13883 it was 4 µg/mL (≈ 9.29 µM). In test [1], the IC50 stood at 6.36 nM.
The like results for `C[C@H](O)c1nccn1Cc1cc(-c2ccc(C#CC3CC4(CCN(Cc5ccn[nH]5)CC4)C3)cc2)on1` [Example 25, (S)-1-(1-((5-(4-((7-((1H-pyrazol-5-yl)methyl)-7-azaspiro[3.5]nonan-2-yl)ethynyl)phenyl)isoxazol-3-yl)methyl)-1H-imidazol-2-yl)ethan-1-ol] were, in that order, 2 µg/mL (≈ 4.03 µM), 4 µg/mL (≈ 8.05 µM) and 7.28 nM.
The like results for `C[C@H](O)c1nccn1Cc1cc(-c2ccc(C#CC3CC4(C3)CN(C(=O)CO)C4)cc2)on1` [Example 26, (S)-2-hydroxy-1-(6-((4-(3-((2-(1-hydroxyethyl)-1H-imidazol-1-yl)methyl)isoxazol-5-yl)phenyl)ethynyl)-2-azaspiro[3.3]heptan-2-yl)ethan-1-one] were, in that order, 2 µg/mL (≈ 4.48 µM), 2 µg/mL (≈ 4.48 µM) and 11.3 nM.
The like results for `C[C@H](O)c1nccn1Cc1cc(-c2ccc(C#CC3CC4(CCN(Cc5ncc[nH]5)CC4)C3)cc2)on1` [Example 27, (S)-1-(1-((5-(4-((7-((1H-imidazol-2-yl)methyl)-7-azaspiro[3.5]nonan-2-yl)ethynyl)phenyl)isoxazol-3-yl)methyl)-1H-imidazol-2-yl)ethan-1-ol] were, in that order, 2 µg/mL (≈ 4.03 µM), 4 µg/mL (≈ 8.05 µM) and 6.08 nM.
In the case of `C[C@H](O)c1nccn1Cc1cc(-c2ccc(C#CC3CC4(CCN(C(=O)CC#N)CC4)C3)cc2)on1` [Example 29, (S)-3-(2-((4-(3-((2-(1-hydroxyethyl)-1H-imidazol-1-yl)methyl)isoxazol-5-yl)phenyl)ethynyl)-7-azaspiro[3.5]nonan-7-yl)-3-oxopropanenitrile], the MIC came out at 2 µg/mL (≈ 4.14 µM) with E. coli ATCC 25922 and 4 µg/mL (≈ 8.27 µM) in the test on K. pneumoniae ATCC13883. Also, the IC50 in test [1] was 6.17 nM.
The like results for `C[C@H](O)c1nccn1Cc1cc(-c2ccc(C#CC3=CCN(C(=O)c4ccncc4)CC3)cc2)on1` [Example 33, (S)-(4-((4-(3-((2-(1-hydroxyethyl)-1H-imidazol-1-yl)methyl)isoxazol-5-yl)phenyl)ethynyl)-3,6-dihydropyridin-1(2H)-yl)(pyridin-4-yl)methanone] were, in that order, 1 µg/mL (≈ 2.09 µM), 2 µg/mL (≈ 4.17 µM) and 19.7 nM.
The like results for `C[C@H](O)c1nccn1Cc1cc(-c2ccc(C#CC3=CCN(Cc4ccc(C(=O)O)cc4)CC3)cc2)on1` [Example 34, (S)-4-((4-((4-(3-((2-(1-hydroxyethyl)-1H-imidazol-1-yl)methyl)isoxazol-5-yl)phenyl)ethynyl)-3,6-dihydropyridin-1(2H)-yl)methyl)benzoic acid] were, in that order, 2 µg/mL (≈ 3.93 µM), 4 µg/mL (≈ 7.87 µM) and 26.7 nM.
As to `CNC(=O)N1CC2(CC(C#Cc3ccc(-c4cc(Cn5ccnc5[C@H](C)O)no4)cc3)C2)C1` [Example 47, (S)-6-((4-(3-((2-(1-hydroxyethyl)-1H-imidazol-1-yl)methyl)isoxazol-5-yl)phenyl)ethynyl)-N-methyl-2-azaspiro[3.3]heptane-2-carboxamide], the minimal inhibitory concentration (MIC) with E. coli ATCC 25922 and against K. pneumoniae ATCC13883 was 2 µg/mL (≈ 4.49 µM) each time. Further, the IC50 in test [1] worked out at 13.1 nM.
Turning to `C[C@H](O)c1nccn1Cc1cc(-c2ccc(C#CC3CC4(C3)CN(C(=O)n3ccnc3)C4)cc2)on1` [Example 48, (S)-(6-((4-(3-((2-(1-hydroxyethyl)-1H-imidazol-1-yl)methyl)isoxazol-5-yl)phenyl)ethynyl)-2-azaspiro[3.3]heptan-2-yl)(1H-imidazol-1-yl)methanone], the MIC in the test on E. coli ATCC 25922 and in the test with K. pneumoniae ATCC13883 was 2 µg/mL (≈ 4.14 µM) throughout. Also, in test [1], the IC50 was 27.9 nM.
Take `C[C@H](O)c1nccn1Cc1cc(-c2ccc(C#CC3CC4(C3)CN(C3CC(C#N)C3)C4)cc2)on1` (stereo partly drawn) [Example 49, (S)-3-(6-((4-(3-((2-(1-hydroxyethyl)-1H-imidazol-1-yl)methyl)isoxazol-5-yl)phenyl)ethynyl)-2-azaspiro[3.3]heptan-2-yl)cyclobutane-1-carbonitrile]: the minimum inhibitory concentration (MIC) came out at 1 µg/mL (≈ 2.14 µM) in the test with E. coli ATCC 25922 and 2 µg/mL (≈ 4.28 µM) in the test with K. pneumoniae ATCC13883. The 50% inhibitory concentration (IC50) in test [1] is 22.6 nM.
Regarding `C[C@H](O)c1nccn1Cc1cc(-c2ccc(C#CC3CC4(C3)CN(Cc3ncco3)C4)cc2)on1` [Example 52, (S)-1-(1-((5-(4-((2-(oxazol-2-ylmethyl)-2-azaspiro[3.3]heptan-6-yl)ethynyl)phenyl)isoxazol-3-yl)methyl)-1H-imidazol-2-yl)ethan-1-ol], the figures for the MIC against E. coli ATCC 25922, against K. pneumoniae ATCC13883 and against K. pneumoniae ATCC51504 were 1 µg/mL (≈ 2.13 µM), 2 µg/mL (≈ 4.26 µM) and 1 µg/mL (≈ 2.13 µM), respectively. Moreover, in test [1], the half-inhibitory concentration (IC50) was determined as 13.9 nM.
Turning to `C[C@H](O)c1nccn1Cc1cc(-c2ccc(C#CC3CC4(C3)CN(CCn3cncn3)C4)cc2)on1` [Example 53, (S)-1-(1-((5-(4-((2-(2-(1H-1,2,4-triazol-1-yl)ethyl)-2-azaspiro[3.3]heptan-6-yl)ethynyl)phenyl)isoxazol-3-yl)methyl)-1H-imidazol-2-yl)ethan-1-ol], the MIC in the test on E. coli ATCC 25922 was found to be 2 µg/mL (≈ 4.14 µM); in the test with K. pneumoniae ATCC13883, 8 µg/mL (≈ 16.5 µM); in the test with K. pneumoniae ATCC51504, 2 µg/mL (≈ 4.14 µM).

Broadly, the MIC is the least concentration at which growth counts as inhibited. The term IC50 denotes the concentration needed to halve the response being measured.

Values taken from patent publication US20260365641A1, “Aromatic Acetylene Derivative, Preparation Method Therefor, And Use Thereof” (Zhejiang Hisun Pharmaceutical Co., Ltd., priority 2022, published 2026).
